Laboratory results from patent US9266835B2, “Quinoline derivatives useful as CB-1 inverse agonists” (JANSSEN PHARMACEUTICA NV, priority 2014, dated 2016).

How the values were obtained:
[1] = target: Human CB1R (Cannabinoid receptor 1) (Homo sapiens (Human), UniProt P21554); assay: CB-1 in vitro cAMP assay (HTRF), inverse agonism; assay type: cell-based; details: mean where tested more than once
Excerpt: (§1) CB1 and CB2 receptors are Gi-coupled GPCR. Activation of CB1 and CB2 receptors results in a decrease in cAMP production. An inverse agonist of the CB1 or CB2 receptor results in the opposite effect, an increase of cAMP production. The principle of this assay is based on HTRF® technology (Homogeneous Time-Resolved Fluorescence). The method is a competitive immunoassay between native cAMP produced by cells and the cAMP labeled with the fluorophore d2. The tracer binding is quantified by a Mab anti-cAMP labeled with Eu3+TBP-NHS Cryptate (supplied as part of the assay kit). The specific signal (i.e. energy transfer) is inversely proportional to the concentration of cAMP in the standard or sample.
(§2) Human CB1R (Cannabinoid receptor 1) was stably transfected in HEK-293 cells (DiscoveRx, cat: 93-0200C1). Human CB2R (Cannabinoid receptor 2) was stably transfected in HEK-293 cells (DiscoveRx, cat: 93-0201C1). Cell cultures were maintained in media: DMEM (Invitrogen Cat#12430-054) supplemented with 10% HI FBS (Invitrogen Cat#16140-071), 1% L-glutamine (Invitrogen Cat#25030-081), 0.2 mg/ml Hygromycin B (Invitrogen Cat#10687-010), 600 μg/mL G418 (Invitrogen Cat#10131-035), and 1X Penn/Strep (Invitrogen 15140-122). After cell expansion, aliquots were cryo-stored in media containing 5% DMSO (Pierce Cat#20684).
(§3) One day prior to experiments media was warmed to 37° C. and the cryo-stored cells were thawed in a 37° C. water bath. The cells were then added to media (10× volume) and the mixture was centrifuged at 1000 RPM for 5 min. The supernate was removed and the cells were re-suspended in media. A sample of the cell suspension was evaluated on a Cedex XS automated cell counter (Innovatis Systems) to determine viable cells/ml. Additional media was added to the cells to achieve a final cell density of 4E5 cells/mL. The cells were then plated into 384 well PDL white solid bottom plates (Greiner, Cat#781945) at 20 μL per well using a Multidrop (Thermo Scientific). Cells were removed from Row P (location of cAMP standards). Two columns of cells were plated into a clear bottom 384 well PDL coated plate (Greiner, Cat#781944) to view confluence the day of the assay. The cell plates were lidded and stored for 15 minutes in a hood, then transferred to an incubator (37° C., 5% CO2, 95% humidity) overnight.
(§4) DMSO was added to all wells of 384 well V bottom polystyrene plate (Greiner, Cat#781280) except to columns 1 and 13, rows 0 and P and wells M13-M23 and N13-N23. Test compounds (60 μL, 10 mM) were added to Column 1 and 13 (A1 through N1 and A13 through L13). Test compounds were serially diluted 1/3 by transferring and mixing 20 μl sample with 40 μL DMSO.
(§5) DMSO (40 μL) was added to wells of 384 well V bottom polystyrene plate: O2 through O11, M14 through M23, N14 through N23, and O14 through O23. AM630 (also known as [6-iodo-2-methyl-1-[2-(4-morpholinyl)ethyl]-1H-indol-3-yl](4-methoxyphenyl)-methanone, Cayman Chemical, Cat#10006974) (60 μL, 10 mM) was added to 01; and 1-(2,4-dichlorophenyl)-7-[(4-fluorophenyl)methylene]-4,5,6,7-tetrahydro-N-1-piperidinyl-1H-indazole-3-carboxamide (60 μL, 10 mM) was added to N13. The control was serially diluted 1/3 by transferring and mixing 20 μl sample with 40 μL DMSO. This process resulted 11 doses per control, 10 mM to […].
(§6) Cells plated the day prior to the assay in clear bottom plates were viewed on an inverse microscope to ensure confluency in the range of 60-75%. […]

[2] = target: Human CB2R (Cannabinoid receptor 2) (Homo sapiens (Human), UniProt P34972); assay: CB-2 in vitro cAMP assay (HTRF), inverse agonism; assay type: cell-based; details: mean where tested more than once
Chain of Human CB2R (Cannabinoid receptor 2) (P34972 whole entry): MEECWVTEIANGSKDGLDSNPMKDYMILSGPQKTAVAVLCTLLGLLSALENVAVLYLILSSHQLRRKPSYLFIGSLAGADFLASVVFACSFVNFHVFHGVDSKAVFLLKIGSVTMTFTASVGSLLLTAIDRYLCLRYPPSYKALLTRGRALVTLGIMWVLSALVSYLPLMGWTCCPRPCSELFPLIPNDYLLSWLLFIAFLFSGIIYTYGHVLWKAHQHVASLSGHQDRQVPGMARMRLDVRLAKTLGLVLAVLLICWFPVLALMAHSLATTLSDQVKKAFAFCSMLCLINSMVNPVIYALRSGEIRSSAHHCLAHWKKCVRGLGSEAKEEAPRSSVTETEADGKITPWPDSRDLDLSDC
Excerpt: as §1, §2, §3, §4, §5, §6

Chain of Human CB1R (Cannabinoid receptor 1) (P21554 whole entry): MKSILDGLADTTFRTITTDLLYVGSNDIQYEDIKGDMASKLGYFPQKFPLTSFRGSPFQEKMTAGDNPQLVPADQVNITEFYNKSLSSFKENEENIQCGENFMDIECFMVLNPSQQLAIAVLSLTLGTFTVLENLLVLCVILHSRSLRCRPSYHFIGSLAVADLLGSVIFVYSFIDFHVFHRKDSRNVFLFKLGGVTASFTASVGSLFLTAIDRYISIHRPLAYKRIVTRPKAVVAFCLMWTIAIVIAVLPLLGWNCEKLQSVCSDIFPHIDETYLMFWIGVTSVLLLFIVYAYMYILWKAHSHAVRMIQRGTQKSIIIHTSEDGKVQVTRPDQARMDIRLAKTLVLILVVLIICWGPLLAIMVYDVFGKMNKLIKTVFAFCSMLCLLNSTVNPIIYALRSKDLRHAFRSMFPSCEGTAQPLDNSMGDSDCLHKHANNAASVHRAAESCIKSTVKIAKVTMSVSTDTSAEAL

Row | Structure (SMILES) | EC50 [1] [nM] | EC50 [2] [nM]
1 | O=c1cc(NC2CCN(S(=O)(=O)C(F)(F)F)CC2)c2cc(C(O)(c3ccc(Cl)cc3)c3ccc(Cl)cc3)ccc2[nH]1 [Compound 73, 6-[Bis(4-chlorophenyl)(hydroxy)methyl]-4-({1-[(trifluoromethyl)sulfonyl]-piperidin-4-yl}amino)quinolin-(1H)-one] | 52 | 5400
2 | CC(Nc1cc(=O)[nH]c2ccc(C(c3ccc(Cl)cc3)c3ccc(Cl)cc3)cc12)c1cccc(C(F)(F)F)c1 (stereo not shown) [Compound 74, 6-[Bis(4-chlorophenyl)methyl]-4-({1-[3-(trifluoromethyl)phenyl]ethyl}amino)quinolin-2(1H)-one] | 36 | > 10000
3 | O=c1cc(Nc2cccc(C(F)(F)F)c2)c2cc(C(c3ccc(Cl)cc3)c3ccc(Cl)cc3)ccc2[nH]1 [Compound 75, 6-[Bis(4-chlorophenyl)methyl]-4-{[3-(trifluoromethyl)phenyl]amino}-quinolin-2(1H)-one] | 25 | > 10000
4 | O=c1cc(NCc2ccc(C(F)(F)F)cn2)c2cc(C(c3ccc(Cl)cc3)c3ccc(Cl)cc3)ccc2[nH]1 [Compound 78, 6-[Bis(4-chlorophenyl)methyl]-4-({[5-(trifluoromethyl)pyridin-2-yl]methyl}amino)quinolin-2(1H)-one] | 168 | > 10000
5 | O=c1cc(NCc2cncc(C(F)(F)F)c2)c2cc(C(c3ccc(Cl)cc3)c3ccc(Cl)cc3)ccc2[nH]1 [Compound 79, 6-[Bis(4-chlorophenyl)methyl]-4-({[5-(trifluoromethyl)pyridin-3-yl]methyl}amino)quinolin-2(1H)-one] | 54 | 6750
6 | O=c1cc(NC2CCN(S(=O)(=O)c3ccccc3)CC2)c2cc(C(c3ccc(Cl)cc3)c3ccc(Cl)cc3)ccc2[nH]1 [Compound 80, 6-[Bis(4-chlorophenyl)methyl]-4-{[1-(phenylsulfonyl)piperidin-4-yl]amino}quinolin-2(1H)-one] | 14 | > 10000
7 | O=c1cc(NC2CCN(S(=O)(=O)N3CCCC3)CC2)c2cc(C(c3ccc(Cl)cc3)c3ccc(Cl)cc3)ccc2[nH]1 [Compound 81, 6-(bis(4-chlorophenyl)methyl)-4-((1-(pyrrolidin-1-ylsulfonyl)piperidin-4-yl)amino)quinolin-2(1H)-one] | 15 | > 10000
8 | O=c1cc(NC2CCN(S(=O)(=O)c3cccc(F)c3)CC2)c2cc(C(c3ccc(Cl)cc3)c3ccc(Cl)cc3)ccc2[nH]1 [Compound 82, 6-[Bis(4-chlorophenyl)methyl]-4-({1-[(3-fluorophenyl)sulfonyl]-piperidin-4-yl}amino)quinolin-2(1H)-one] | 63 | 3200
9 | O=c1cc(Nc2ccc(Cl)c(F)c2)c2cc(C(c3ccc(Cl)cc3)c3ccc(Cl)cc3)ccc2[nH]1 [Compound 83, 6-[Bis(4-chlorophenyl)methyl]-4-[(4-chloro-3-fluorophenyl)amino]quinolin-2(1H)-one] | 11 | > 10000
10 | O=C(O)c1cccc(S(=O)(=O)N2CCC(Nc3cc(=O)[nH]c4ccc(C(c5ccc(Cl)cc5)c5ccc(Cl)cc5)cc34)CC2)c1 [Compound 84, 3-{[4-({6-[Bis(4-chlorophenyl)methyl]-2-oxo-1,2-dihydroquinolin-4-yl}amino)piperidin-1-yl]sulfonyl}benzoic acid] | 269 | 8960
11 | COC(=O)c1ccc(Nc2cc(=O)[nH]c3ccc(C(c4ccc(Cl)cc4)c4ccc(Cl)cc4)cc23)cc1 [Compound 85, Methyl 4-({6-[bis(4-chlorophenyl)methyl]-2-oxo-1,2-dihydroquinolin-4-yl}amino)benzoate] | 70 | > 10000
12 | O=C(O)c1ccc(Nc2cc(=O)[nH]c3ccc(C(c4ccc(Cl)cc4)c4ccc(Cl)cc4)cc23)cc1 [Compound 86, 4-({6-[Bis(4-chlorophenyl)methyl]-2-oxo-1,2-dihydroquinolin-4-yl}amino)benzoic acid] | > 10000 | > 10000
13 | NC(=O)c1ccc(Nc2cc(=O)[nH]c3ccc(C(c4ccc(Cl)cc4)c4ccc(Cl)cc4)cc23)cc1 [Compound 87, 4-({6-[Bis(4-chlorophenyl)methyl]-2-oxo-1,2-dihydroquinolin-4-yl}amino)benzamide] | 3150 | > 10000
14 | O=c1cc(NC2CCC(C(F)(F)F)CC2)c2cc(C(c3ccc(Cl)cc3)c3ccc(Cl)cc3)ccc2[nH]1 (stereo not shown) [Compound 88, 6-[Bis(4-chlorophenyl)methyl]-4-{[4-(trifluoromethyl)cyclohexyl]-amino}quinolin-2(1H)-one] | 111 | 3700
15 | Cn1c(=O)cc(NC2CCN(S(=O)(=O)C(F)(F)F)CC2)c2cc(C(c3ccc(Cl)cc3)c3nccs3)ccc21 (stereo not shown) [Compound 89, 6-[(4-chlorophenyl)(1,3-thiazol-2-yl)methyl]-1-methyl-4-[[1-(trifluoromethane)sulfonylpiperidin-4-yl]amino]-1,2-dihydroquinolin-2-one] | 14 | 9900
16 | NC(=O)Cn1c(=O)cc(NC2CCN(S(=O)(=O)C(F)(F)F)CC2)c2cc(C(c3ccc(Cl)cc3)c3ccc(Cl)cc3)ccc21 [Compound 90, 2-(6-(bis(4-chlorophenyl)methyl)-2-oxo-4-((1-((trifluoromethyl)sulfonyl)piperidin-4-yl)amino)quinolin-1(2H)-yl)acetamide] | 967 | > 10000
17 | O=c1cc(NC2CCN(S(=O)(=O)C(F)(F)F)CC2)c2cc(C(c3ccc(Cl)cc3)c3ccc(Cl)cc3)cc(Br)c2[nH]1 [Compound 92, 6-(bis(4-chlorophenyl)methyl)-8-bromo-4-((1-((trifluoromethyl)sulfonyl)piperidin-4-yl)amino)quinolin-2(1H)-one] | 10 | 50
18 | O=c1cc(Nc2ccc(CC(F)(F)F)cc2)c2cc(C(c3ccc(Cl)cc3)c3ccc(Cl)cc3)cc(Br)c2[nH]1 [Compound 93] | 15 | > 10000
19 | COCCOc1ccc(Nc2cc(=O)[nH]c3ccc(C(c4ccc(Cl)cc4)c4ccc(Cl)cc4)cc23)cc1 [Compound 94, 6-[Bis(4-chlorophenyl)methyl]-4-{[4-(2-methoxyethoxy)phenyl]-amino}quinolin-2(1H)-one] | 55 | > 10000
20 | CCOC(=O)CC(=O)N1CCC(Nc2cc(=O)[nH]c3ccc(C(c4ccc(Cl)cc4)c4ccc(Cl)cc4)cc23)CC1 [Compound 95, Ethyl 3-[4-({6-[bis(4-chlorophenyl)methyl]-2-oxo-1,2-dihydroquinolin-4-yl}amino)piperidin-1-yl]-3-oxopropanoate] | 13 | 3650
21 | O=C(O)CC(=O)N1CCC(Nc2cc(=O)[nH]c3ccc(C(c4ccc(Cl)cc4)c4ccc(Cl)cc4)cc23)CC1 [Compound 96, 3-[4-({6-[Bis(4-chlorophenyl)methyl]-2-oxo-1,2-dihydroquinolin-4-yl}amino)piperidin-1-yl]-3-oxopropanoic acid] | 220 | > 10000
22 | CCOC(=O)CCC(=O)N1CCC(Nc2cc(=O)[nH]c3ccc(C(c4ccc(Cl)cc4)c4ccc(Cl)cc4)cc23)CC1 [Compound 97, ethyl 4-[4-([6-[bis(4-chlorophenyl)methyl]-2-hydroxyquinolin-4-yl]amino)piperidin-1-yl]-4-oxobutanoate] | 31 | 9900
23 | O=C(O)CCC(=O)N1CCC(Nc2cc(=O)[nH]c3ccc(C(c4ccc(Cl)cc4)c4ccc(Cl)cc4)cc23)CC1 [Compound 98, 4-(4-((6-(bis(4-chlorophenyl)methyl)-2-oxo-1,2-dihydroquinolin-4-yl)amino)piperidin-1-yl)-4-oxobutanoic acid] | 242 | > 10000
